Assay results taken from patent US8741955B2, “D-serine transporter inhibitors as pharmaceutical compositions for the treatment of central nervous system disorders” (Allergan, Inc., priority 2011, dated 2014).

What was measured:
[1] = system: NMDA receptor-mediated excitatory postsynaptic currents (EPSCNMDA); test: electrophysiological recording of NMDA receptor-mediated EPSCs in rat hippocampal slices
Method: […] thick hippocampal slices were prepared from […] rats using Leica VT1000S-microtome. Slices were perfused with ACSF containing: 121 mM NaCl, 2.5 mM KCl, 2.0 mM Mg2SO4, 2.0 CaCl2, 1 mM NaH2PO4, 26.2 NaHCO3, and 11 mM glucose, which was equilibrated with 5% CO2/95% O2. Experiments were performed in a recording chamber on the stage of an Olympus BX-61wi microscope with infrared DIC optics for visualizing whole-cell patch-clamp recordings. EPSPs were recorded from CA1 pyramidal neurons by stimulating the Schaffer collateral-commissural pathway using a bipolar tungsten electrode. The recording pipettes were filled with regular ICM containing: 120 mM Cs-gluconate, 5 mM NaCl, 10 mM KCl, 0.1 mM CaCl2, 1 mM EGTA, 2 mM MgCl2, 10 mM HEPES, 2 mM Na-ATP, 2 mM Na2-phosphocreatine, and 0.25 mM Na-GTP, pH 7.3 (290 mOsm).
To measure NMDA-mediated EPSCs, extracellular Mg2SO4 was lowered to 0.2 mM and 2 μM NBQX and 100 μM picrotoxin were added in the ACSF. 1 μM 7-CKY (7-chlorokynurenic acid) was added to improve the sensitivity of […] to D-serine.

[2] = system: long-term potentiation (LTP) in the primary visual cortex; test: long term potentiation in primary visual cortex slices; parameters: species or system rat
Method: Long Term Potentiation (LTP) in primary visual cortex has been used as a cellular model for visual cortex plasticity and has functional consequences on visual evoked responses. NMDA receptors play a critical role in visual cortex LTP induction.
Following decapitation of the rat, the brain was rapidly removed and immersed in ice-cold artificial cerebrospinal fluid (ACSF) containing 124 mM NaCl, 3 mM KCl, 1.25 mM KH2PO4, 3.4 mM CaCl2, 2.5 mM MgSO4, 26 mM NaHCO3, and 10 mM D-glucose. A block of visual cortex was created by removing the frontal ⅔ portion of the brain and the cerebellum. Coronal visual cortex slices of 375 μm were prepared from adult Sprague Dawley (SD) rats using a vibratome (VT 1000 S; Leica). The slices were maintained in an interface recording chamber perfused with preheated ACSF. Slices were continuously perfused with this solution at a rate of 1.00-1.50 ml/min while the surface of the slices was exposed to warm, humidified 95% O2/5% CO2 and maintained at 31±1° C. Visual cortex slices were allowed to recover for 1 hr before recording began. […] This was repeated 2 additional times with a 1 minute intertrain interval, and the level of LTP was recorded for at least 30 min. Changes in amplitude of the synaptic response were used to measure the extent of LTP because it was determined to be the more consistent parameter than the slope of the response. […]

[3] = system: rat hippocampal astrocytes; test: [3H]D-serine transport into primary cultures of rat hippocampal astrocytes; format: cell-based; conditions: Astrocyte; inhibition of [3H]D-serine transport, rat hippocampal astrocytes; means of at least two determinations
[4] = target: T1, human ASCT2 (Homo sapiens, UniProt Q15758); test: transport into HEK cells expressing ASCT2; format: cell-based
T1 construct: expressed in transfected cells; host or cells: HEK (human embryonic kidney) cells
T1 sequence (Q15758 1-541): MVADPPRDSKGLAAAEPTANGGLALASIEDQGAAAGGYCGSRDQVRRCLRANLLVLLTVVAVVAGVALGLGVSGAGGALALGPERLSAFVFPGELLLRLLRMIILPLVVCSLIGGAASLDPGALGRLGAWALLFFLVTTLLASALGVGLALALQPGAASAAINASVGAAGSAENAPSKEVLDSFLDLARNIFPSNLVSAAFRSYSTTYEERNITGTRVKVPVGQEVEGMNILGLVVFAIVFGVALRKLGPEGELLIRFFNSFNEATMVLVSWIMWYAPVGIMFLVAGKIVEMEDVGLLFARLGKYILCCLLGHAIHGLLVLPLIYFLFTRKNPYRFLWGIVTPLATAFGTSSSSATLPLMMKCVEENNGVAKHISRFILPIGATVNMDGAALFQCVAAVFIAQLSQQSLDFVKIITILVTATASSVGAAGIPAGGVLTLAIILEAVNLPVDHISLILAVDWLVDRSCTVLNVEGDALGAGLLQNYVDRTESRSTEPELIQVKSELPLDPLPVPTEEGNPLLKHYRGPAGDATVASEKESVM
Method: (§1) Cell-based assays: the transport of [^3H]L- or D-serine was measured in primary cultures of rat hippocampal astrocytes or in human embryonic kidney (HEK) cells expressing ASCT transporter sub-types. For the astrocyte assays, cells were plated on either 24- or 96-well plates at a density of 50,000 cells per well. For the HEK assays, cells were plated on coated 96-well plates at a density of 80,000 cells/well. Assays were conducted in duplicate at room temperature in assay buffer consisting of: NaCl: 150 mM, KCl: 2 mM; MgCl2: 1 mM; CaCl2: 1 mM; HEPES: Tris buffer: 10 mM, pH7.4. To assess the sodium-dependence of transport, NaCl was replaced in the assay buffer by equimolar choline chloride. Following aspiration of growth medium and 2 washes with assay buffer, cells were incubated with [^3H]L- or D-serine at a final concentration of 1 μM for 5 min (astrocytes) or 1 min (HEK cells), after which the incubation medium was aspirated and the cells washed twice with ice-cold assay buffer. Cells containing radiolabel were solubilized in 100 μl of 1% Triton-X100 and an aliquot counted in a beta counter. IC50 values were determined over a range of at least 6 concentrations and derived from curve-fitting algorithms available in GraphPad Prism 4.

[5] = system: rat hippocampal astrocytes; test: [3H]L-serine transport into astrocytes; format: cell-based
Method: as §1

[6] = system: schizophrenic patients; conditions: added on to traditional antipsychotic drugs; Labrie and Roder, 2010; cited from earlier work

Row | percentage increase in the amplitude of EPSCNMDA ([1]; 1000 μM, in presence of 1 μM 7-CKY, representative experiment) | IC50 [3] | inhibition of [3H]L-serine transport in ASCT2-expressing HEK cells [4] | Compound | duration of potentiation of EPSCNMDA ([1]; 1000 μM, representative experiment) | effect on NMDA receptor mediated EPSCs in CA1 region of the hippocampus ([1]; rat hippocampal slice) | effect on LTP with D-AAO in the perfusion medium ([2]; 0.2 unit/ml DAAO) | effect on LTP evoked by theta burst stimulation in visual cortex slice ([2]; rat visual cortex slice) | inhibition of [3H]L-serine transport in astrocytes [5] | efficacy in clinical trials of schizophrenic patients [6]
1 | 22% | – | – | N[C@H](C(=O)O)c1ccc(O)cc1 [L-4-hydroxyphenylglycine] | lasted for one hour and then returned to baseline in control buffer | potentiated NMDA receptor mediated excitatory post-synaptic currents | completely prevented | enhanced LTP in a concentration-dependent manner | – | –
2 | – | 1580 µM | completely inhibited | N[C@H](CO)C(=O)O [D-serine] | – | – | – | – | completely inhibited | has shown efficacy
